This test has as its target T1, isocitrate lyase (ICL) (Salmonella enterica, UniProt P51066).
T1 sequence (P51066 1-434): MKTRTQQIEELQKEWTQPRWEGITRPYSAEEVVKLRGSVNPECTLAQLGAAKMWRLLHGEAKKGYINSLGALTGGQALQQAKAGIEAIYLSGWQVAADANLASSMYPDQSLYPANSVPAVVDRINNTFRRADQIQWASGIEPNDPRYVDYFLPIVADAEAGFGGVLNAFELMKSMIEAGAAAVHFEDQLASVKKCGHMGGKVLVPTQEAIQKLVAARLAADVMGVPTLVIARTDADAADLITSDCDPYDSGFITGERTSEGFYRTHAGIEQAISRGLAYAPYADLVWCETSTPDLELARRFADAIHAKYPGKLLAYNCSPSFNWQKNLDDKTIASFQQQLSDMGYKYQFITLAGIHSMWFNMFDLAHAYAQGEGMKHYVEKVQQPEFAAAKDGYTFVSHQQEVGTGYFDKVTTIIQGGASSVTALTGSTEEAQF
The test can be described thus: enzyme activity assay of purified ICL. In kind it is biochemical.

As to `C=C(CC(=O)O)C(=O)O` [ITA, itaconate], the IC50 was roughly 2.6 mM.

By IC50 is commonly meant the concentration that gives 50% inhibition.

(Values after PMC8098682 (Chemical Science, 2021).)
